The test system of assay [1] is K. pneumoniae (ATCCBAA-1705). Put plainly: MIC, standard microtiter dilution (CLSI). It is filed as cell-based, Klebsiella pneumoniae. The following applies: broth microdilution (CLSI), CAMHB, 37 °C, 24 h. The gist of the method:
(§1)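 Inoculum 10^6 CFU/mL in CAMHB against 2-fold peptide series; salt variants used 150 mM NaCl, 4.5 mM KCl, 6 mM NH4Cl, 1 mM MgCl2, 2 mM CaCl2, or 25% FBS.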
(In general: In broth dilution the organism is exposed to a series of concentrations in liquid medium.)

The subject of assay [2] is P. aeruginosa (ATCC 27883). Put plainly: MIC, standard microtiter dilution (CLSI). As to conditions: broth microdilution (CLSI), CAMHB, 37 °C, 24 h. It is filed as cell-based, Pseudomonas aeruginosa. The gist of the method: as §1
In assay [3] the test system is E. coli (ATCC BAA-2452). The following applies: Gram-negative, NDM-1; CLSI microdilution, CAMHB, 37 °C, 24 h; highest MIC of three independent experiments in triplicate. The gist of the method:
as §1

Assay [4] has as its system A. baumannii (ATCC BAA1605). As to conditions: Gram-negative, footnote e ciprofloxacin (MDR in Table S3); CLSI microdilution, CAMHB, 37 °C, 24 h; highest MIC of three independent experiments in triplicate. The gist of the method: as §1
Another assay concerns E. coli (ATCC 25922). As to conditions: for MIC, E. coli (ATCC 25922): broth microdilution (CLSI), CAMHB, 37 °C, 24 h. The gist of the method: as §1
For assay [5], the system named is K. pneumonia (ATCC BAA-2470). As to conditions: Gram-negative, carbapenem-resistant; CLSI microdilution, CAMHB, 37 °C, 24 h; highest MIC of three independent experiments in triplicate. The method, boiled down: as §1
Assay [6] has as its system P. aeruginosa (ATCC BAA-1744). As to conditions: Gram-negative, resistant strain (marked a; imipenem resistant in Table S3); CLSI microdilution, CAMHB, 37 °C, 24 h; highest MIC of three independent experiments in triplicate. The gist of the method:
as §1

Assay [7] deals with Klebsiella pneumonia (ATCC 13883). The following applies: Gram-negative; CLSI microdilution, CAMHB, 37 °C, 24 h; highest MIC of three independent experiments in triplicate. The method, boiled down:
as §1

Assay [8] deals with P. aeruginosa (ATCC 10145). The following applies: Gram-negative; CLSI microdilution, CAMHB, 37 °C, 24 h; highest MIC of three independent experiments in triplicate. The gist of the method:
as §1

In assay [9] the test system is E. coli (ATCC BAA-2452). Put plainly: Bactericidal kinetic assay. It is filed as cell-based. As for the experimental part:
The time course of bacterial killing was studied by the exposure of overnight grown cultures of MRSA (ATCC BAA-1556) and E. coli (ATCC BAA-2452) to 8a and 8b at the MIC and 4× the MIC in Muller Hinton media. Bacterial cells (2 × 10^6 CFU/mL) were treated with peptides and standard antibiotics and incubated at 37 °C. Aliquots were withdrawn at a 30 min time interval for 4 h and plated on the agar plate to determine the number of viable bacterial colonies. Data were obtained from two independent experiments performed in triplicate.

Assay [10] deals with E. coli (ATCC BAA-2452). Briefly: Flow cytometric analysis of PI-stained cells. It is filed as cell-based. The following applies: MIC and 4 × MIC, 1 h, flow cytometry. As for the experimental part:
The flow cytometric analysis was performed by using MRSA (ATCC BAA-1556) and E. coli (ATCC BAA-2452) cultures grown to the mid log phase in Mueller Hinton broth (HIMEDIA). Before treatment, bacterial cells were washed thrice with buffer (10 mM Tris, pH 7.4) and resuspended in the same buffer to obtain 10^7 CFU/mL bacterial suspensions. Test peptides (8a and 8b) and the standard antibiotics (daptomycin and polymyxin B) at MIC and 4 × MIC were incubated with bacterial suspension for 1 h. Following the treatment with test peptides, the cells were pelleted by centrifugation at 3000g for 15 min in a microcentrifuge. The supernatant was decanted, and the cells were washed with PBS several times and then incubated with PI ([…]) in the dark for 15 min at 37 °C. FACS analysis of the stained bacterial cells was performed using a FACscan flow cytometer (BD Accuri C6, BD Biosciences, California, USA), and data were analyzed by using Cell Quest software.

In a further assay the test system is E. faecalis (ATCC 51575). Put plainly: microbe, parasite or virus in culture. The following applies: Enterococcus faecalis, ATCC51575, 24 h, read-out: MIC, E. faecalis (ATCC 51575). As for the experimental part: (§2) Description of the characteristics and growth conditions of various bacterial strains used in the study are provided in the Supporting Information (Table S3). Antibacterial susceptibility testing was carried out using a standard microtiter dilution method recommended by the clinical and laboratory standard institute (CLSI) and measured as a minimum inhibitory concentration (MIC), the lowest peptide concentration that inhibited bacterial growth. Briefly, the overnight grown cultures in the recommended broth for each bacterial strain were diluted in cation-adjusted Mueller Hinton Broth (CAMHB) to give an inoculum of 10^6 colony-forming units (CFU)/mL. A 2-fold serially diluted test peptide solution (100 μL) was added to the microtiter plates. After adding bacterial suspension (100 μL), the plates were incubated at 37 °C for 24 h, and the MICs were determined. The same protocol was used to determine the MICs in the presence of salts and serum except using the media supplemented with various cationic salts (150 mM NaCl, 4.5 mM KCl, 6 mM NH4Cl, 1 mM MgCl2, and 2 mM CaCl2) or 25% FBS. The data was acquired from three independent assays performed in triplicate.
(§3) The bacterial strains employed in this study were obtained from the American Type Culture Collection (ATCC). Each strain was propagated as recommended by the ATCC, and each strain was stored as a frozen glycerol stock at -80°C. A bacterial colony was grown on the appropriate agar as indicated in Table S1 and was used to inoculate the appropriate broth. The culture was incubated at the appropriate conditions, as mentioned in Table S1. Following the incubation, the culture was diluted to an optical density 625 nm (OD625) of 0.1 in cation adjusted Mueller Hinton Broth (CAMHB), which is equivalent to 1 × 10^8 CFU/mL. The culture was further diluted to 1 × 10^6 CFU/mL, which was used to conduct the MIC determination assay. For the S. pneumoniae strains, CAMHB + 2.5% lysed horse blood was required for the assay. The strains with their […]
(§4) Table S3. Description of the characteristics and growth conditions of various bacterial strains

Another assay relates to E. faecium (ATCC 27270). Briefly: microbe, parasite or virus in culture. As to conditions: Enterococcus faecium, ATCC27270, 24 h, read-out: MIC, E. faecium (ATCC 27270). As for the experimental part:
as §2, §3, §4

The subject of a further assay is E. faecium (ATCC 700221). Put plainly: microbe, parasite or virus in culture. The following applies: Enterococcus faecium, ATCC700221, 24 h, read-out: MIC, E. faecium (ATCC 700221). As for the experimental part:
as §2, §3, §4

Where [11] appears, read: 10^6 CFU/mL, highest MIC of three independent experiments in triplicate.

Molecules are shown by their SMILES. In brackets after ≈: the same amount, converted by molar mass. Like-named read-outs stand apart in the source and are kept apart here. Where a SMILES comes first, the peptide text is derived from it. Bridges are numbered along the chain shown (N, C = ends). [ ]: non-standard residue; d: D form. The star is where a group is joined. X1 = CC[C@H](C)CCCCC(=O)*; Dab = NCC[C@H](N)C(=O)O

In the case of `CC[C@H](C)CCCCC(=O)N[C@@H](CCN)C(=O)N[C@H](C(=O)N[C@@H](CCN)C(=O)N[C@H]1CCNC(=O)[C@H]([C@@H](C)O)NC(=O)[C@H](CCN)NC(=O)[C@H](CCN)NC(=O)[C@H](CC(C)C)NC(=O)[C@@H](Cc2ccccc2)NC(=O)[C@H](CCN)NC1=O)[C@@H](C)O` [polymyxin B, reference compound] (X1-[Dab]T[Dab][Dab][Dab][dF]L[Dab][Dab]T; lactam 4-C (inferred); N-terminus assumed), the “MIC, K. pneumoniae (ATCCBAA-1705)” value came out at 0.7 µg/mL in [1] (setting [11]) and 0.58 µM in assay [1] (value in parentheses (μM)). The “MIC, P. aeruginosa (ATCC 27883)” value in assay [2] (setting [11]) is 1.5 µg/mL; in assay [2] (value in parentheses (μM)), 1.25 µM. In the assay on E. coli (ATCC BAA-2452) [3], the “MIC, E. coli (ATCC BAA-2452)” value is 0.7 µg/mL. Further, the “MIC, A. baumannii (ATCC BAA1605)” value in assay [4] was found to be 0.7 µg/mL. For the same molecule, in the assay on E. coli (ATCC 25922) (MH media without salt ions or serum, three independent experiments in triplicate), the “MIC, E. coli (ATCC 25922), Control” value turned out to be 0.7 µg/mL. For the same molecule, the “MIC, E. coli (ATCC 25922)” value is 0.7 µg/mL in the assay with E. coli (ATCC 25922) (setting [11]) and 0.58 µM in the assay on E. coli (ATCC 25922) (value in parentheses (μM)). Moreover, in the assay on E. coli (ATCC 25922) (media with 1 mM MgCl2, three independent experiments in triplicate), the “MIC, E. coli (ATCC 25922), MgCl2” value worked out at 1.5 µg/mL (≈ 1.25 µM). In addition, the “MIC, E. coli (ATCC 25922), CaCl2” value in the assay with E. coli (ATCC 25922) (media with 2 mM CaCl2, three independent experiments in triplicate) is 0.7 µg/mL (≈ 0.582 µM). Besides, the “MIC, E. coli (ATCC 25922), KCl” value against E. coli (ATCC 25922) (media with 4.5 mM KCl, three independent experiments in triplicate) stood at 0.7 µg/mL (≈ 0.582 µM). Moreover, the “MIC, E. coli (ATCC 25922), NH4Cl” value against E. coli (ATCC 25922) (media with 6 mM NH4Cl, three independent experiments in triplicate) stood at 0.7 µg/mL (≈ 0.582 µM). Also, the “MIC, E. coli (ATCC 25922), NaCl” value with E. coli (ATCC 25922) (media with 150 mM NaCl, three independent experiments in triplicate) is 0.7 µg/mL (≈ 0.582 µM). In addition, the “MIC, E. coli (ATCC 25922), FBS (25%)” value in the assay with E. coli (ATCC 25922) (media with 25% fetal bovine serum, three independent experiments in triplicate) was 3.1 µg/mL (≈ 2.58 µM). In assay [5], the “MIC, K. pneumonia (ATCC BAA-2470)” value was found to be 1.5 µg/mL. Also, in assay [6], the “MIC, P. aeruginosa (ATCC BAA-1744)” value was determined as 0.7 µg/mL. For the same molecule, in [7], the “MIC, Klebsiella pneumonia (ATCC 13883)” value was 6.2 µg/mL. Moreover, the “MIC, P. aeruginosa (ATCC 10145)” value in [8] was 0.7 µg/mL. Further, the “time to complete eradication of E. coli cells at 4 × MIC” value in the assay with E. coli (ATCC BAA-2452) [9] stood at 2.5 h. In the assay on E. coli (ATCC BAA-2452) [10], the “PI-stained population of E. coli cells” value is recorded as “did not significantly increase”.

For the molecule `CN[C@H](CC(C)C)C(=O)N[C@H]1C(=O)N[C@@H](CC(N)=O)C(=O)N[C@H]2C(=O)N[C@H]3C(=O)N[C@H](C(=O)N[C@H](C(=O)O)c4cc(O)cc(O)c4-c4cc3ccc4O)[C@H](O)c3ccc(c(Cl)c3)Oc3cc2cc(c3O[C@@H]2O[C@H](CO)[C@@H](O)[C@H](O)[C@H]2O[C@H]2C[C@](C)(N)[C@H](O)[C@H](C)O2)Oc2ccc(cc2Cl)[C@H]1O` [vancomycin, reference compound], the MIC was over 50 µg/mL in the assay with E. faecalis (ATCC 51575), 1.5 µg/mL (≈ 1.04 µM) in the assay on E. faecium (ATCC 27270) and over 50 µg/mL in the assay with E. faecium (ATCC 700221).

Source of the values: PMC9841524, “Structure-Based Rational Design of Small α-Helical Peptides with Broad-Spectrum Activity against Multidrug-Resistant Pathogens” (Journal of Medicinal Chemistry, 2022).
